The text below walks through data of article PMC11333205, “Pyridylpiperazine-based carbodithioates as urease inhibitors: synthesis and biological evaluation” (Frontiers in Chemistry, 2024).

Read-outs that look alike come from different tables or passages of the source.

In assay [1] the target is T1, urease (Canavalia ensiformis, UniProt P07374). Kind of assay: biochemical. Type of assay: biochemical. On the procedure:
The inhibitory potential of the compounds was assessed using a slightly modified indophenol method ([Hina et al., 2023]). In 96-well plates, a mixture consisting of 50 µL urease, 30 µL buffer solution (phosphate buffer, sodium salicylate, sodium nitroprusside, and EDTA, pH 8.0), 10 µL urea substrate (100 mM), and 10 µL of the test compound (1 mM) was subjected to pre-incubation for 10 min at room temperature. Subsequently, an alkali reagent (70 µL) was promptly introduced into each well. Then, 30 min later, the absorbance at 630 nm for all samples was measured using a BioTek ELx800 instrument from BioTek Instruments, Inc., United States. The data were collected for all experiments performed in triplicate, and the percentage of inhibitory activities was assessed utilizing the following formula: Percentage of inhibition=100 – Absorbance of compound/Absorbance of control × 100.

Assay [2] deals with T1, urease. Kind of assay: Kinetic study (Lineweaver–Burk / Michaelis–Menten) of urease inhibition. Type of assay: biochemical. Conditions: Lineweaver–Burk plots; 5j at 0, 2.55, 5.11, 7.65 μM. From the text: By using Lineweaver–Burk graphs, we determined the mechanism of action of the leading compound 5j against urease. We evaluated the effect of the inhibitor on K m and V max using reciprocal 1/S and 1/V of the product concentration and calculated the inhibition type. The slope K m /V max of each line was schemed against different concentrations of the substrate and inhibitor. In kinetic studies of the potent compound, different concentrations of the compound and substrate were used. Different concentrations of 1 mM 5j were 0, 2.55, 5.11, and 7.65 μM, and different concentrations of the substrate were 0, 25, 50, 100, and 150 mM.
The type of inhibitory action was determined by using […] different concentrations of the substrate (0, 2.5, 5, 10, and 15 mM) in the absence and presence of different concentrations of inhibitor 5j (0, 2.55, 5.11, and 7.65 μM).

The target in assay [3] is T1, urease. Conditions: read-out: IC50 (urease); Figure 1; ref Khan et al., 2024; cited from earlier work.

The term IC50 denotes the point on the concentration scale where inhibition reaches its midpoint.

T1 sequence (P07374 whole entry, looked up): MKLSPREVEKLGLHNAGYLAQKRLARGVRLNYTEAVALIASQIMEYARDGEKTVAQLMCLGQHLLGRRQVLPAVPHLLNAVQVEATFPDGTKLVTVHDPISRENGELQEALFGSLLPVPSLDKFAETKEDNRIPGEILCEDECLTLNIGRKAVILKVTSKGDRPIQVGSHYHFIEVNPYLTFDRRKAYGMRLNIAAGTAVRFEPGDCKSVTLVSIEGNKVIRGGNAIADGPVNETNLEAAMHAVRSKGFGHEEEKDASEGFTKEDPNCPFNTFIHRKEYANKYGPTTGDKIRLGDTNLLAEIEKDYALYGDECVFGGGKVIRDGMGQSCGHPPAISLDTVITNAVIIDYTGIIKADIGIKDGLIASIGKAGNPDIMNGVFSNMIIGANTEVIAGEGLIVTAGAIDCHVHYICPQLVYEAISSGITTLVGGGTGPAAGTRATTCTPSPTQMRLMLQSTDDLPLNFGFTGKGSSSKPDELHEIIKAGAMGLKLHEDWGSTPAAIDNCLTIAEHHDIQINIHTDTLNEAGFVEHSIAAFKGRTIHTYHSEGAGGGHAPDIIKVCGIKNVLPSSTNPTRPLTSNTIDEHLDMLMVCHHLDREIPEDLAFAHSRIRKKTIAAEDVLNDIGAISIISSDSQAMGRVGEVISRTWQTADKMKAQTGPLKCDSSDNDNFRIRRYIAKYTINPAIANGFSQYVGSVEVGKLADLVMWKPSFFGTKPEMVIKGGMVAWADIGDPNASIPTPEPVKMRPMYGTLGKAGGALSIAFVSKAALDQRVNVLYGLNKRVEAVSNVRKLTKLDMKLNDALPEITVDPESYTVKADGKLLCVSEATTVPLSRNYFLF

In turn, `Cc1ccccc1NC(=O)CSC(=S)N1CCN(c2ncccc2[N+](=O)[O-])CC1` [Compound 5j, 2-Oxo-2-(o-tolylamino)ethyl 4-(3-nitropyridin-2-yl)piperazine-1-carbodithioate] yielded an IC50 against urease [1] of 5.16 ± 2.68 µM. For the same molecule, the “type of inhibition against urease” value at urease [2] is “mixed type of inhibition”.

As for `CN(Cc1ccccc1)C(=S)SCc1ccccc1` [S-benzyl substituted carbodithioate], at urease [3], the IC50 is 0.75 ± 0.04 µM.
